Counter-ions that a name gives are not always drawn.
Assays:
[1] = system: surface protein CD184 expression in CD34+HSPCs; assay: Preliminary screening: CD184 mean fluorescence intensity by flow cytometry; assay type: cell-based, human; details: 16 hours treatment, three concentrations
Procedure: (§1) According to the counting results in Example 1, 5×10^4CD34+ cells were added to each well of a 24-well plate, and the cells were cultured with 1 ml of complete medium per well for 24 hours.
(§2) The next day, the compound was dissolved in DMSO and mixed, and then diluted with PBS to a specific concentration (see Table 3). An equal volume of 10 μl of the diluted compound per well was added to the cell culture medium, mixed well, and placed in an incubator for 16 hours.
(§3) On the third day, an antibody pre-mixed solution was prepared: a solution of PBS+0.5% BSA was pre-mixed with fluorescent antibody BV510 conjugated anti-human CD34 (Biolegend clone 581), FITC conjugated anti-human CD90 (Biolegend, clone 5E10) and APCCy7 conjugated anti-human CD45RA (Biolegend, clone HI100), 50 μl/ml of each antibody was added, and stored in the dark.
(§4) Cells were collected into centrifuge tubes, centrifuged at 400 g for 5 minutes. The supernatant was removed, added with 50 μl of antibody pre-mixed solution (containing 2.5 μl of each antibody) in each sample, resuspended and incubated at 4° C. for 20 minutes in the dark. The cells were washed with 1 ml of PBS added to each tube, centrifuged at 400 g for 5 minutes and resuspended with 50 μl of PBS+0.5% BSA solution. 2.5 μl of PE-conjugated anti-CD184 antibody (Biolegend, clone 12G5) was added to each sample, incubated at 37° C. for 30 minutes, washed, and stained with 7AAD to identify cell viability. Flow cytometry (Beckman Coulter CytoFLEX) was used to detect cell surface fluorescence, and the mean fluorescence intensity (MFI) and positive ratio of CD184 expression in HSPCs and LT-HSCs were analyzed, respectively. Among them, HSPCs are CD34+ cells, and LT-HSCs are CD34+CD90+CD45RA− cells.
(1) Preliminary screening of compounds: 139 compounds were used for preliminary screening, among which 89 compounds were screened in rounds 1-5, and 50 compounds were screened in rounds 6-9. During the in vitro culture of CD34+HSPCs, they were treated for 16 hours by adding three concentrations of compounds to the complete medium. Then the mean fluorescence intensity of surface protein CD184 expression was detected by flow cytometry. 1.

[2] = system: surface protein CD184 expression in CD34+HSPCs; assay: Secondary screening: CD184 mean fluorescence intensity, ratio to control group; assay type: cell-based, human; details: high concentration, 16 hours treatment, FIG. 2
Procedure: as §1, §2, §3, §4
(2) Secondary screening of compounds: the 13 compounds obtained from the preliminary screening were further verified using three concentrations of high, medium and low, with three replicates for each concentration. After 16 hours of treatment with the above-mentioned compounds, the average fluorescence intensity of surface protein CD184 expression was detected by flow cytometry. 2. Wherein, the data in the figure are the ratio of the mean CD184 fluorescence intensity of each group to the control group (Mock). (M344 is the positive control group; Mock is the negative control group untreated during culture.)

[3] = system: NPG (NOD-scid Il2rg−/−) immunodeficient mice; assay: Transplantation of treated human CD34+HSPCs into irradiated NPG mice; assay type: in vivo, mouse; details: 17 weeks after transplantation; for differentiation of treated HSPCs in bone marrow, spleen and peripheral blood: FIG. 5B to 5D; for transplantation efficiency of cells in the bone marrow of NPG mice (hCD45+/(hCD45+ + mCD45+)×100%): HSPCs treated ex vivo, Mock group 64.7%
Description: The transplantation efficiency of hematopoietic stem cells refers to the ability of hematopoietic stem cells from human donor to effectively migrate to the recipient's bone marrow after intravenous injection into the recipient, maintain growth in the bone marrow microenvironment, and play a role in repopulating of the hematopoietic system. To verify the transplantation efficiency of hematopoietic stem cells in the experiment, human hematopoietic stem cells are transplanted into an immune-deficient mouse model, the blood and immune organs of the recipient mice are detected by flow cytometry, and the content of human donor cells (hCD45 positive cell ratio) is analyzed.
Human CD34+HSPCs treated with Colchicine, Vinblastine sulfate or Lexibulin for a short time, or those in the control group were transplanted into NPG (NOD-scid Il2rg−/−) immunodeficient mice irradiated with 1.0 Gy, 8 mice in each group. 17 weeks after transplantation, cell transplantation efficiency in mouse bone marrow, and distribution proportion of human T cells labeled with human CD3, CD4 and CD8 antibodies, myeloid cells labeled with human CD33 antibody, B cells labeled with CD19 antibody, NK cells labeled with human CD56 antibody, and hematopoietic stem and progenitor cells labeled with human CD34 antibody in bone marrow, peripheral blood, and spleen were detected. The results are shown in FIG. 5A to FIG. 5D, where the transplantation efficiency=hCD45^+proportion/(hCD45^+proportion+mCD45^+proportion)×100%

SMILES | expression of CD184 in CD34+HSPCs (mean fluorescence intensity) [1] | expression of CD184 relative to negative control (Mock) [2] | expression of CD184 relative to positive control M344 [2] | differentiation of treated HSPCs in bone marrow, spleen and peripheral blood [3] | transplantation efficiency of cells in the bone marrow of NPG mice (hCD45+/(hCD45+ + mCD45+)×100%) [3]
Cc1c[nH]c(-c2cnc(NCCNc3ccc(C#N)cn3)nc2-c2ccc(Cl)cc2Cl)n1 [CHIR99021] | can enhance the expression of CD184 |  |  |  | 
COC(=O)Nc1nc2ccc(C(=O)c3cccs3)cc2[nH]1 [Nocodazole] | can enhance the expression of CD184 |  |  |  | 
COc1cc2c(c(OC)c1OC)-c1ccc(OC)c(=O)cc1[C@@H](NC(C)=O)CC2 [Colchicine] | can enhance the expression of CD184 | 2.6 times | comparable effects to M344 | can differentiate into T cells, myeloid cells, B cells and NK cells | 65.84%
CC[C@]1(O)C[C@@H]2CN(CCc3c([nH]c4ccccc34)[C@@](C(=O)OC)(c3cc4c(cc3OC)N(C)[C@H]3[C@@](O)(C(=O)OC)[C@H](OC(C)=O)[C@]5(CC)C=CCN6CC[C@]43[C@@H]65)C2)C1 [Vinblastine sulfate] | can enhance the expression of CD184 |  | ~2 times | can differentiate into T cells, myeloid cells, B cells and NK cells | 80.73%
N#Cc1c(NC(=O)c2cccc3ccccc23)sc2c1CCCC2 [JNK-inhibitor IX] | can enhance the expression of CD184 |  |  |  | 
COC[C@H]1Cn2cc(-c3nc(Nc4ccnn4C)ncc3C)nc2C(=O)N1Cc1ccc(F)c(F)c1 [AZD0364] | can enhance the expression of CD184 |  |  |  | 
O=C(Nc1cccc2cccnc12)c1ccc(N2C(=O)[C@@H]3[C@H](C2=O)[C@@H]2C=C[C@H]3C2)cc1 [IWR-1-endo] | can enhance the expression of CD184 |  |  |  | 
c1cc(-c2cnn3cc(-c4ccc(N5CCNCC5)cc4)cnc23)c2cccnc2c1 [LND-212854] | can enhance the expression of CD184 |  |  |  | 
O=C(Nc1ccc2[nH]nc(-c3ccncc3)c2c1)[C@@H]1CCN(CC(=O)N2CCN(c3ccc(-c4ncccn4)cc3)CC2)C1 [SCH772984] | can enhance the expression of CD184 |  |  |  | 
O=C(NC[C@H](O)CO)c1ccncc1Nc1ccc(I)cc1F [Pimasertib] | can enhance the expression of CD184 |  |  |  | 
C/C(=C\c1ccc(C(=O)O)cc1)c1ccc2c(c1)C(C)(C)CCC2(C)C [TTNPB] | can enhance the expression of CD184 |  |  |  | 
CCC[C@H](Nc1nc(-c2ccc(NC(=O)NCC)c(OC)c2)ncc1C)c1cccnc1 [Lexibulin] | can enhance the expression of CD184 |  | ~2 times | can differentiate into T cells, myeloid cells, B cells and NK cells | 82.46%
